Experimental data as given in PubChem BioAssay (NCI).
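Following 48 hours of exposure in 96-well plates, responses at five concentrations were used to interpolate endpoints linearly. GI50 marks 50% less growth. TGI marks complete inhibition of growth.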

Key:
Test in all cases: NCI anticancer screen, dose series, 48 h
NCI-H23 lung = tested on: NCI-H23 lung
SF-539 CNS = tested on: SF-539 CNS
COLO 205 colon = tested on: COLO 205 colon
HCT-15 colon = tested on: HCT-15 colon
HOP-92 NSCLC = tested on: HOP-92 NSCLC
KM12 colon = tested on: KM12 colon
SK-OV-3 ovarian = tested on: SK-OV-3 ovarian
SW-620 colon = tested on: SW-620 colon
RXF 393 renal = tested on: RXF 393 renal
MDA-MB-435 = tested on: MDA-MB-435

Structure (SMILES)	TGI (NCI-H23 lung) [µM]	TGI (SF-539 CNS) [µM]	TGI (COLO 205 colon) [µM]	TGI (HCT-15 colon) [µM]	TGI (HOP-92 NSCLC) [µM]	TGI (KM12 colon) [µM]	TGI (SK-OV-3 ovarian) [µM]	TGI (SW-620 colon) [µM]	TGI (RXF 393 renal) [µM]	GI50 (NCI-H23 lung) [µM]	GI50 (SF-539 CNS) [µM]	GI50 (COLO 205 colon) [µM]	GI50 (HCT-15 colon) [µM]	GI50 (HOP-92 NSCLC) [µM]	GI50 (KM12 colon) [µM]	GI50 (MDA-MB-435) [µM]	TGI (MDA-MB-435) [µM]	GI50 (SK-OV-3 ovarian) [µM]	GI50 (SW-620 colon) [µM]
O=C(/C=C/c1c(O)ccc2ccccc12)c1ccccc1	> 100	> 100	> 100	> 100	> 100	> 100	> 100	83.7	> 100	–	–	–	–	–	–	–	–	–	–
O=C1NC2OCC(O)C(O)C2O1 (stereo not given)	> 100	> 100	> 100	> 100	> 100	> 100	> 100	> 100	–	–	–	–	–	–	–	–	–	–	–
CCc1ccc(Nc2ccc([N+](=O)[O-])cc2[N+](=O)[O-])cc1	> 100	> 100	–	> 100	–	> 100	> 100	> 100	> 100	–	–	–	–	–	–	–	–	–	–
CC(C)c1cc2c(O)c(c1)Cc1cc(C(C)C)cc(c1O)Cc1cc(C(C)C)cc(c1O)Cc1cc(C(C)C)cc(c1O)C2	> 100	> 100	> 100	> 100	> 100	> 100	> 100	> 100	> 100	–	–	–	–	–	–	–	–	–	–
COc1ccc(-n2cc(-c3cc(OC)c(OC)c(OC)c3)[nH]c2=O)cc1Cl	> 100	> 100	> 100	> 100	> 100	> 100	> 100	> 100	–	> 100	35	> 100	> 100	15	> 100	> 100	> 100	31.8	> 100
CNc1nc(N)c(N=O)c(Nc2ccc(Br)cc2)n1	> 100	> 100	> 100	> 100	–	> 100	–	> 100	> 100	–	–	–	–	–	–	–	> 100	–	–
COc1cc2c(c(OC)c1OC)C(=O)[C@@H]1c3ccc([N+](=O)[O-])cc3C(=O)N(CCCBr)[C@H]21	35.8	38.7	> 100	> 100	78.6	> 100	74.5	> 100	–	15.4	11.8	9.86	20.3	16.1	25.7	2.79	14.7	22.3	20
COC(=O)C(=O)C(C(=O)C=C(C)C)C(=O)C(=O)Nc1ccc(C)cc1C (stereo not given)	> 100	> 100	> 100	> 100	–	> 100	> 100	> 100	> 100	–	–	–	–	–	–	–	–	–	–
COC(=O)C12C3C4C1C1C2C3C41NC(=O)c1csc([C@@H](C[C@H](C(C)C)N(C)C(=O)[C@@H](NC(=O)[C@H]2CCCCN2C)C2CC2)OC(C)=O)n1 (stereo not given in full)	> 33.3	0.11	0.379	> 33.3	–	> 33.3	> 33.3	> 33.3	–	0.151	0.00574	0.00727	0.138	–	0.00818	< 0.00333	0.00992	0.148	0.00746
COc1ccc(CNc2nc3cc(C(F)(F)F)ccc3nc2C)cc1OC	> 100	> 100	> 100	> 100	–	83	> 100	> 100	–	–	–	–	–	–	–	–	–	–	–
CO[C@H]1C=C[C@@]23c4cc5c(cc4CO[C@]2(O)CN(C)[C@H]3C1)OCO5	> 100	> 100	> 100	> 100	> 100	> 100	> 100	> 100	–	–	–	–	–	–	–	–	> 100	–	–
COc1ccc2nc3cc(Cl)ccc3c(NCCN)c2c1	–	–	3.14	3.9	2.95	3.46	3.26	3.25	–	–	–	1.53	1.87	1.47	1.67	1.76	3.36	1.81	1.45
CCOc1ccc2c(c1)[n+]([O-])c(-c1nc3ccccc3s1)c(N)[n+]2[O-]	> 100	> 100	> 100	> 100	70.1	> 100	> 100	> 100	–	–	–	–	–	–	–	–	–	–	–
O=C1OC(c2ccco2)=N/C1=C\c1cccc([N+](=O)[O-])c1	> 100	> 100	> 100	> 100	> 100	> 100	> 100	> 100	–	–	–	–	–	–	–	–	> 100	–	–
COc1cc2c3c(n(CCCCOC(=O)C(Cl)(Cl)Cl)c(=O)c2cc1OC)-c1cc2c(cc1C3=O)OCO2	> 100	> 100	> 100	> 100	> 100	> 100	> 100	> 100	–	92	60.1	> 100	> 100	> 100	> 100	> 100	> 100	> 100	85.5
COC1=CC2(C=CC1=O)c1cc(OC)c(OC)cc1CCN2C(=O)c1ccccc1 (stereo not given)	> 100	> 100	> 100	> 100	> 100	> 100	> 100	> 100	> 100	–	–	–	–	–	–	–	–	–	–
COc1ccc(-c2nnc(COc3ccc(NC(=O)Nc4ccc(Cl)c(C(F)(F)F)c4)cc3F)o2)cc1	14.6	19.6	5.06	33	5.45	11	31.5	27.2	–	3.12	5.01	2.02	2.74	1.87	2.31	3.8	36.9	5.86	3.42
CC(C)c1ccc(C(c2ccc(OCC(=O)O)cc2)c2ccc(C(C)C)cc(=O)c2O)c(O)c(=O)c1	20.4	31.3	> 100	22.9	0.956	–	41.9	> 100	27.2	–	–	–	–	–	–	–	–	–	–
N#CCC(=O)NC1C2CC3CC(C2)CC1C3 (stereo not given)	32.6	32.3	34	35.9	36.1	32.5	78.6	51.7	30.2	–	–	–	–	–	–	–	–	–	–
